Assay results reported in paper PMC6264278, “Corydaline Inhibits Multiple Cytochrome P450 and UDP-Glucuronosyltransferase Enzyme Activities in Human Liver Microsomes” (Molecules, 2011).
Where two headings read alike, the source gives them in different places.

What was measured:
[1] = target: T1, CYP2C19 (Homo sapiens, UniProt P33261); experiment: CYP2C19 S-mephenytoin 4'-hydroxylation inhibition in pooled human liver microsomes; assay type: in vitro ADME; details: for IC50: 100 μM S-mephenytoin, mean ± SD, n = 3
T1 construct: using pooled human liver microsomes; tissue BD Gentest Co. H161; host or cells: pooled human liver microsomes
Procedure: (§1) Phenacetin O-deethylase, coumarin 7-hydroxylase, amodiaquine N-deethylase, diclofenac 4-hydroxylase, S-mephenytoin 4-hydroxylase, bufuralol hydroxylase, and midazolam 1’-hydroxylase activities were determined as probe activities for CYP1A2, CYP2A6, CYP2C8, CYP2C9, CYP2C19, CYP2D6, and CYP3A4, respectively, using cocktail incubation and liquid chromatography-tandem mass spectrometry (LC/MS/MS). The incubation mixtures were prepared in a total volume of 200 μL, as follows: pooled human liver microsomes (0.25 mg/mL), 1.3 mM NADPH, 3.3 mM MgCl2, 50 mM potassium phosphate buffer (pH 7.4), and a cocktail of probe substrates and various concentrations of corydaline (1−200 μM). The substrates were used at concentrations approximately equal to their respective Km values: 50 μM phenacetin, 2.5 μM coumarin, 2.5 μM amodiaquine, 10 μM diclofenac, 100 μM S-mephenytoin, 5 μM bufuralol, and 2.5 μM midazolam. After a 3-min pre-incubation period at 37 °C, the reactions were initiated by addition of an NADP generating system and incubated for 20 min at 37 °C in a shaking water bath. After incubation, the reaction was stopped by placement of the tubes on ice and addition of 100 μL of ice-cold methanol containing internal standards (^13C2,^15N-acetaminophen for acetaminophen and N-desethylamodiaquine, d5-7-hydroxycoumarin for 7-hydroxycoumarin, ^13C6-4-hydroxydiclofenac for 4-hydroxydiclofenac, d3-4-hydroxy-mephenytoin for 4-hydroxymephenytoin and hydroxymidazolam, d9-1-hydroxybufuralol for 1-hydroxybufuralol). The incubation mixtures were then centrifuged at 13,000 × g for 5 min. All incubations were performed in triplicate and the mean values were used. […] The reaction was started by addition of a cocktail of CYP probe substrates.
All 7 metabolites produced from the cocktail of CYP isoform-specific substrates were simultaneously determined by LC/MS/MS [25]. The system consisted of a tandem quadrupole mass spectrometer (TSQ Quantum Access, ThermoFisher Scientific, San Jose, CA, USA) coupled with a Nanospace SI-2 LC system. […] Quantification was performed by selected reaction monitoring (SRM) of the [M+H]^+ ion and the related product ion for each metabolite. […]
(§2) Reactions were initiated by addition of NADPH at 37 °C and stopped after 15 min by placement of the incubation tubes on ice and addition of ice-cold methanol (100 μL) containing an internal standard (2.0 μg/mL ^13C6-4-hydroxydiclofenac for diclofenac, 0.5 μg/mL d3-4-hydroxymephenytoin for mephenytoin, or 0.5 μg/mL d9-1-hydroxy-bufuralol for bufuralol). The incubation mixtures were centrifuged at 13,000 × g for 5 min, and aliquots (5 μL) of the supernatants were analyzed by LC/MS/MS. […] Aliquots (5 μL) were analyzed by LC/MS/MS. […]

[2] = target: T2, CYP2D6 (Homo sapiens, UniProt P10635); experiment: CYP2D6 bufuralol 1'-hydroxylation inhibition in pooled human liver microsomes; assay type: in vitro ADME; details: for inhibition mode, CYP2D6 bufuralol 1'-hydroxylation: Lineweaver, Dixon and secondary reciprocal plots; for IC50: 5.0 μM bufuralol, mean ± SD, n = 3
T2 construct: using pooled human liver microsomes; tissue BD Gentest Co. H161; host or cells: pooled human liver microsomes
Procedure: as §1
All 7 metabolites produced from the cocktail of CYP isoform-specific substrates were simultaneously determined by LC/MS/MS [25]. The system consisted of a tandem quadrupole mass spectrometer (TSQ Quantum Access, ThermoFisher Scientific, San Jose, CA, USA) coupled with a Nanospace SI-2 LC system. Separation was performed on an Atlantis dC18 column (5 μm, 2.1 mm i.d. ×100 mm, Waters, Milford, MA, USA) using the gradient elution of a mixture of 5% methanol in 0.1% formic acid (mobile phase A) and 95% methanol in 0.1% formic acid (mobile phase B) at a flow rate of 0.25 mL/min: 10% mobile phase B for 1 min, 10% to 95% mobile phase B for 1 min, 95% mobile phase B for 5 min. The column and autosampler temperatures were 50 and 6 °C, respectively. After 1.5 min, the LC eluent was diverted from waste to the mass spectrometer fitted with the electrospray ionization (ESI) source and operated in positive ion mode. […] Quantification was performed by selected reaction monitoring (SRM) of the [M+H]^+ ion and the related product ion for each metabolite. […]
as §2

T1 sequence (P33261 whole entry): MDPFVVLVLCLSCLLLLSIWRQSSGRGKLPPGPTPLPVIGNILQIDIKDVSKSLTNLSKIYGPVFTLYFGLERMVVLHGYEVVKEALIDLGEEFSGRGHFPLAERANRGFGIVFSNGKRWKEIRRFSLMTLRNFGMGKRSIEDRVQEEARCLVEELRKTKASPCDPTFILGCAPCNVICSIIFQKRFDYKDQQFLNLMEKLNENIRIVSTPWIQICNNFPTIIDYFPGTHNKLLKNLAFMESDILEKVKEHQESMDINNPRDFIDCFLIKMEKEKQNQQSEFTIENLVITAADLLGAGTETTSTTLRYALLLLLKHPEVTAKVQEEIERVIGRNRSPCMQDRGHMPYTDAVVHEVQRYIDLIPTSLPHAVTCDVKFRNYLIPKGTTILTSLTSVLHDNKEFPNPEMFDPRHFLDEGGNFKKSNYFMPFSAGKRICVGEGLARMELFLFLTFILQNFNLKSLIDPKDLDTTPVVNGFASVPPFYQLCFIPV
T2 sequence (P10635 whole entry): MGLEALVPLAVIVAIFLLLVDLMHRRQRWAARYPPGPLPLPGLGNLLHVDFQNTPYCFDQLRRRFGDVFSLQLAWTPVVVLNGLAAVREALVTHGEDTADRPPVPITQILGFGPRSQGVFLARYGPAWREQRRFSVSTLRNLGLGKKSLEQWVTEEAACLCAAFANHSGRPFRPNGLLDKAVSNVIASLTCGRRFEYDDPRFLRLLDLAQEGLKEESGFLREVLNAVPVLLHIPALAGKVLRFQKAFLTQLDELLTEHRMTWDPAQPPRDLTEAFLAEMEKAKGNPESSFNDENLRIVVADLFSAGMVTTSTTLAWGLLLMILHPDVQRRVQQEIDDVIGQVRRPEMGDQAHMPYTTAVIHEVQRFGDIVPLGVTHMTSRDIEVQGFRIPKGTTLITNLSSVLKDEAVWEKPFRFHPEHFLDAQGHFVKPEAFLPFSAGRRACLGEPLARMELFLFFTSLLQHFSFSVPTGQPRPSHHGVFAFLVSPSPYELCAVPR

inhibition mode, CYP2C19 S-mephenytoin 4'-hydroxylation ([1]; Lineweaver, Dixon and secondary reciprocal plots): competitive
Ki ([1]; human liver microsomes, 10-40 μM S-mephenytoin): 1.7 ± 0.5 µM
IC50 ([1]; pooled human liver microsomes (H161), read-out: IC50 no preincubation, CYP2C19 S-mephenytoin 4'-hydroxylation): 11.7 ± 1.4 µM
IC50 ([1]; pre-incubated 30 min with NADPH, read-out: IC50 with preincubation, CYP2C19 S-mephenytoin 4'-hydroxylation): 19.2 ± 1.8 µM
inhibition mode, CYP2D6 bufuralol 1'-hydroxylation [2]: competitively
inhibition mode, CYP2D6 bufuralol 1'-hydroxylation ([2]; listed as corydaline): competitive
Ki ([2]; human liver microsomes, 0.5-5 μM bufuralol): 27.3 ± 0.7 µM
IC50 ([2]; pooled human liver microsomes (H161), read-out: IC50 no preincubation, CYP2D6 bufuralol 1'-hydroxylation): 64.5 ± 9.8 µM
IC50 ([2]; pre-incubated 30 min with NADPH, read-out: IC50 with preincubation, CYP2D6 bufuralol 1'-hydroxylation): 116 ± 7.6 µM
Compound: COc1cc2c(cc1OC)C1C(C)c3ccc(OC)c(OC)c3CN1CC2 (stereo not drawn) [Corydaline, 2,3,9,10-tetramethoxy-13-methyl-5,8,13,13a-tetrahydro-6H-isoquino[3,2-a]isoquinoline]
